In publication PMC12595434, “Development of retinoid nuclear receptor pathway antagonists through targeting aldehyde dehydrogenase 1A3” (iScience, 2025):

How the values were obtained:
CCKa = CCKa (Homo sapiens, UniProt P32238); assay: Off-target profiling panel; assay type: binding; settings: read-out: Inhibition by MBE1 at 10 μM (%)
T3-MCA tumors = assay: Tumor infiltrating immune cell profiling of T3-MCA tumors; settings: oral gavage, 7 days of treatment
CDCP1 = biological target: T1, CDCP1 (Homo sapiens, UniProt Q9H5V8); assay: Thermal proteome profiling (TPP) in A375 cells; assay type: cell-based; settings: CDCP1, 1 uM
T1 construct: Treated A375 cells were harvested from 10 × 15 cm plates; endogenous in cells; host or cells: A375 melanoma cells

TPX2 = biological target: T2, TPX2 (Homo sapiens, UniProt Q9ULW0); assay: Thermal proteome profiling (TPP) in A375 cells; assay type: cell-based; settings: TPX2, 100 nM
T2 construct: Treated A375 cells were harvested from 10 × 15 cm plates; endogenous in cells; host or cells: A375 melanoma cells

op-mu = op-mu (Homo sapiens, UniProt P35372); assay: Off-target profiling panel; assay type: binding; settings: read-out: Inhibition by MBE1 at 10 μM (%)
NMDA = assay: Off-target profiling panel; assay type: binding; settings: 10 μM
ACHE = ACHE (Homo sapiens, UniProt P22303); assay: Off-target profiling panel; assay type: biochemical; settings: read-out: Inhibition by MBE1 at 10 μM (%)
5HT2B = 5HT2B (Homo sapiens, UniProt P41595); assay: Off-target profiling panel; assay type: binding; settings: read-out: Inhibition by MBE1 at 10 μM (%)
Alpha1A = Alpha1A (Homo sapiens, UniProt P35348); assay: Off-target profiling panel; assay type: binding; settings: read-out: Inhibition by MBE1 at 10 μM (%)
CB2 = CB2 (Homo sapiens, UniProt P34972); assay: Off-target profiling panel; assay type: binding; settings: read-out: Inhibition by MBE1 at 10 μM (%)
AR = AR (Homo sapiens, UniProt P10275); assay: Off-target profiling panel; assay type: binding; settings: read-out: Inhibition by MBE1 at 10 μM (%)
LCK = LCK (Homo sapiens, UniProt P06239); assay: Off-target profiling panel; assay type: biochemical; settings: read-out: Inhibition by MBE1 at 10 μM (%)
op-delta = op-delta (Homo sapiens, UniProt P41143); assay: Off-target profiling panel; assay type: binding; settings: read-out: Inhibition by MBE1 at 10 μM (%)
5HT1B = 5HT1B (Homo sapiens, UniProt P28222); assay: Off-target profiling panel; assay type: binding; settings: read-out: Inhibition by MBE1 at 10 μM (%)
COX1 = COX1 (Homo sapiens, UniProt P23219); assay: Off-target profiling panel; assay type: biochemical; settings: read-out: Inhibition by MBE1 at 10 μM (%)
H2 = H2 (Homo sapiens, UniProt P25021); assay: Off-target profiling panel; assay type: binding; settings: read-out: Inhibition by MBE1 at 10 μM (%)
hERG = hERG (Homo sapiens, UniProt Q12809); assay: Off-target profiling panel; assay type: binding; settings: read-out: Inhibition by MBE1 at 10 μM (%)
mouse T cells = assay: T cell proliferation (CFSE) co-culture with myeloid cells; assay type: cell-based; settings: 1 μM MBE1 treatment of B16F10-ALDH1A3 cells
Procedure: Next, to simulate paracrine signaling from tumor cells, we collected conditioned media from isogenic B16F10 cells stably expressing either vector or ALDH1A3 and added the media to the myeloid cells prior to culturing with T cells.
Bone marrow derived monocytes were enriched using MACS isolation (#130-100-629) and >95% purity of monocytes was confirmed by staining with Ly6C-PE (Clone# HK1.4; Biolegend 128008). Monocytes were cultured in RPMI1640 at 1M/well in a 6-well plate. 20 ng/ml mGM-CSF (peprotech) and 20 ng/ml mIL-4 (peprotech) were used to differentiate monocytes to monocyte derived dendritic cells (MoDCs). 100 nM atRA or 0.1% DMSO was used to treat the cells. 3 days later, floating cells were collected and 20,000 of them were cocultured with 100,000 CD4^+ T cell labeled with CFSE (Thermo fisher scientific) at 1:5000. T cell proliferation was examined ∼72hrs after the coculture. When conditioned medium was used in differentiating MoDCs, conditioned medium was first collected from 500,000 B16-vector control cells vs. B16-mALDH1A3 cells with or without 1 μM MBE1 treatment cultured in 1.5 mL medium in a 6-well plate for ∼24hrs. Fresh RPMI1640 and conditioned medium were mixed 1:1 before applying to MoDC culture. In parallel, fresh RPMI1640 medium alone is used as a control. […]

PDE4D2 = PDE4D2 (Homo sapiens, UniProt Q08499); assay: Off-target profiling panel; assay type: biochemical; settings: read-out: Inhibition by MBE1 at 10 μM (%)
Beta1 = Beta1 (Homo sapiens, UniProt P08588); assay: Off-target profiling panel; assay type: binding; settings: read-out: Inhibition by MBE1 at 10 μM (%)
COX2 = COX2 (Homo sapiens, UniProt P35354); assay: Off-target profiling panel; assay type: biochemical; settings: read-out: Inhibition by MBE1 at 10 μM (%)
Beta2 = Beta2 (Homo sapiens, UniProt P07550); assay: Off-target profiling panel; assay type: binding; settings: read-out: Inhibition by MBE1 at 10 μM (%)
GR = GR (Homo sapiens, UniProt P04150); assay: Off-target profiling panel; assay type: binding; settings: read-out: Inhibition by MBE1 at 10 μM (%)
D1 = D1 (Homo sapiens, UniProt P21728); assay: Off-target profiling panel; assay type: binding; settings: read-out: Inhibition by MBE1 at 10 μM (%)
T3-MCA sarcoma = assay: T3-MCA syngeneic tumor growth; assay type: in vivo, mouse; settings: MBE1.5-formulated diet 270 ppm (equivalent 40 mg/kg per day), by day 7 of treatment
Procedure: A considerable number of research efforts have attempted to generate retinoid nuclear receptor pathway antagonists, whether through targeting retinoid transport, the atRA synthetic enzymes, or by creating inverse agonists of the RAR/RXR nuclear receptors. […] Thus, mice were injected subcutaneously with T3-MCA sarcoma cells and were randomized by tumor size once tumors became palpable. One group received MBE1.5-formulated diet at 270 ppm (equivalent dose of 40 mg/kg body mass per day based on average food consumption), and the other group received control diet.
No statistical method was used to predetermine the number of animals needed across experiments. Xenograft experiments were conducted using 50k cells suspended in 10 μL PBS for mammary gland injection or 100k cells in 100 μL PBS for subcutaneous injection. Bioluminescent imaging (BLI) and tumor measurement was conducted as previously described.[78] IV/PO pharmacokinetic analysis of MBE1 and MBE1.5 was conducted on male CD-1 mice from Vital River that had been fasted for 4 h. Sampling was performed from either jugular puncture or tail-vein sampling using BD yellow-capped tubes for serum analysis or K2-EDTA tubes for hematology. Medicated feed was manufactured at Envigo using MBE1.5 powder with a final concentration of 270 ppm. Medicated diet was stored at 4°C for no longer than 6 months at a time.

ALDH1A3 mRNA = assay: RT-qPCR of ALDH1A3 mRNA after treatment; assay type: cell-based, human; settings: multiple cell lines

T1 sequence (Q9H5V8 30-836): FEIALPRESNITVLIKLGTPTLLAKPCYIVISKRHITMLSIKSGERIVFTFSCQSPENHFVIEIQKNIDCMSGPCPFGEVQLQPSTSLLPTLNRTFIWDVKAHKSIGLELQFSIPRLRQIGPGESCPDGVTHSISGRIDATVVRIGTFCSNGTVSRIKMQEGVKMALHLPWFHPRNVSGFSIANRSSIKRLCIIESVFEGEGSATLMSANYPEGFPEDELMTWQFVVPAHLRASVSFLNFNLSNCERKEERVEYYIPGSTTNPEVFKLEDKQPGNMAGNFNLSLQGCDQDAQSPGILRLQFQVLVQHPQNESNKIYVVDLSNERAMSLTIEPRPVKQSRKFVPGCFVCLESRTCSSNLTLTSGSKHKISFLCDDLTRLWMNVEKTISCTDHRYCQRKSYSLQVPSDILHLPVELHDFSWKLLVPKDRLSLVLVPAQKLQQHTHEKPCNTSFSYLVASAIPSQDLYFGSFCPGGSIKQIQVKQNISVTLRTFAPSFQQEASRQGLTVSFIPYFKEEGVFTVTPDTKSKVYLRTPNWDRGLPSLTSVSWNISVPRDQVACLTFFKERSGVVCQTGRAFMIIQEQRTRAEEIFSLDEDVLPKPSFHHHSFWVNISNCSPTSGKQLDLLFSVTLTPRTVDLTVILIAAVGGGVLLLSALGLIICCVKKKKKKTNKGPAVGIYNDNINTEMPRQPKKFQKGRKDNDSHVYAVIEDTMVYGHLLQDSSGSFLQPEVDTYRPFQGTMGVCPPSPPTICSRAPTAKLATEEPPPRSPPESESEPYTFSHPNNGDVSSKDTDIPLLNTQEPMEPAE
T2 sequence (Q9ULW0 whole entry): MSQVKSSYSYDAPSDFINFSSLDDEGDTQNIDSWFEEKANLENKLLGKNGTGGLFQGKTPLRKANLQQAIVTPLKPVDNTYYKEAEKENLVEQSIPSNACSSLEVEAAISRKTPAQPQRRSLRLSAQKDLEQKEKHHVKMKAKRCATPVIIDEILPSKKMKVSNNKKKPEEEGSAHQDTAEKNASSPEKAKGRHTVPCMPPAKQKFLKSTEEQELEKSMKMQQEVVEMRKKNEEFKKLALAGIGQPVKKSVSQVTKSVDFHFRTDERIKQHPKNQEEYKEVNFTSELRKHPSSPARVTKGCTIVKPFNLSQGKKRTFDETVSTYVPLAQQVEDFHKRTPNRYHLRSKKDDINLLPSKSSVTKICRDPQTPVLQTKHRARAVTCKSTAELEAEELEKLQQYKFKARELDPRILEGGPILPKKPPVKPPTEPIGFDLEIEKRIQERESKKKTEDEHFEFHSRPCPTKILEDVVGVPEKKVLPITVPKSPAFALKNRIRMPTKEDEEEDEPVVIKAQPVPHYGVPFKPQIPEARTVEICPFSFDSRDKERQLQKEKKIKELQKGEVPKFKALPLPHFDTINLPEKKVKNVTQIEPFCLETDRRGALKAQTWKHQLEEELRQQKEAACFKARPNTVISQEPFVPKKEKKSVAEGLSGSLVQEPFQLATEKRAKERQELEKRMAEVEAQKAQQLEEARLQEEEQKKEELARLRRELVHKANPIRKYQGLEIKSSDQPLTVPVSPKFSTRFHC
Chain of CCKa (P32238 whole entry): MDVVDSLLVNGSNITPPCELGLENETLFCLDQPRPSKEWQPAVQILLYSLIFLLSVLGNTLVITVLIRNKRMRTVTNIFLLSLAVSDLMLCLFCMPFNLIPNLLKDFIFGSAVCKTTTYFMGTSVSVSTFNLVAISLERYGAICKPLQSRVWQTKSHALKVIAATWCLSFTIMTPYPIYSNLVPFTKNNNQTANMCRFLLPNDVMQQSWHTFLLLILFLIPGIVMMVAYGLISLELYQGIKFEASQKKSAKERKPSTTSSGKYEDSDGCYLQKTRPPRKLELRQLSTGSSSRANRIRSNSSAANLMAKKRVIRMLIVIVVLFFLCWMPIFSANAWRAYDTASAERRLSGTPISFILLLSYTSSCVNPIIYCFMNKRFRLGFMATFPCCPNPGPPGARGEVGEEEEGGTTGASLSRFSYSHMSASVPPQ
Chain of Beta1 (P08588 whole entry): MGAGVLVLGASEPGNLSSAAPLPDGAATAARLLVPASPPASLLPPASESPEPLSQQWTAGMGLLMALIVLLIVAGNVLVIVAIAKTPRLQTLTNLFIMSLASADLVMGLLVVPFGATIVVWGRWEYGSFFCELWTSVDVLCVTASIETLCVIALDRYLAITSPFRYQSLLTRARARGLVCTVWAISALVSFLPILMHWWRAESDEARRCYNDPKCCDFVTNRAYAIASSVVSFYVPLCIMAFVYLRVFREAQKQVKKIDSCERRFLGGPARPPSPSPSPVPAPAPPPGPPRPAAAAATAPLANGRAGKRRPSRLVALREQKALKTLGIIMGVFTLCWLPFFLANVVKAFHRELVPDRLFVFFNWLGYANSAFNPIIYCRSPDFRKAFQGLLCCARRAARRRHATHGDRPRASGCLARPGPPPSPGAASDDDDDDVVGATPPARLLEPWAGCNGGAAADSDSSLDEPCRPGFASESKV
Chain of hERG (Q12809 whole entry): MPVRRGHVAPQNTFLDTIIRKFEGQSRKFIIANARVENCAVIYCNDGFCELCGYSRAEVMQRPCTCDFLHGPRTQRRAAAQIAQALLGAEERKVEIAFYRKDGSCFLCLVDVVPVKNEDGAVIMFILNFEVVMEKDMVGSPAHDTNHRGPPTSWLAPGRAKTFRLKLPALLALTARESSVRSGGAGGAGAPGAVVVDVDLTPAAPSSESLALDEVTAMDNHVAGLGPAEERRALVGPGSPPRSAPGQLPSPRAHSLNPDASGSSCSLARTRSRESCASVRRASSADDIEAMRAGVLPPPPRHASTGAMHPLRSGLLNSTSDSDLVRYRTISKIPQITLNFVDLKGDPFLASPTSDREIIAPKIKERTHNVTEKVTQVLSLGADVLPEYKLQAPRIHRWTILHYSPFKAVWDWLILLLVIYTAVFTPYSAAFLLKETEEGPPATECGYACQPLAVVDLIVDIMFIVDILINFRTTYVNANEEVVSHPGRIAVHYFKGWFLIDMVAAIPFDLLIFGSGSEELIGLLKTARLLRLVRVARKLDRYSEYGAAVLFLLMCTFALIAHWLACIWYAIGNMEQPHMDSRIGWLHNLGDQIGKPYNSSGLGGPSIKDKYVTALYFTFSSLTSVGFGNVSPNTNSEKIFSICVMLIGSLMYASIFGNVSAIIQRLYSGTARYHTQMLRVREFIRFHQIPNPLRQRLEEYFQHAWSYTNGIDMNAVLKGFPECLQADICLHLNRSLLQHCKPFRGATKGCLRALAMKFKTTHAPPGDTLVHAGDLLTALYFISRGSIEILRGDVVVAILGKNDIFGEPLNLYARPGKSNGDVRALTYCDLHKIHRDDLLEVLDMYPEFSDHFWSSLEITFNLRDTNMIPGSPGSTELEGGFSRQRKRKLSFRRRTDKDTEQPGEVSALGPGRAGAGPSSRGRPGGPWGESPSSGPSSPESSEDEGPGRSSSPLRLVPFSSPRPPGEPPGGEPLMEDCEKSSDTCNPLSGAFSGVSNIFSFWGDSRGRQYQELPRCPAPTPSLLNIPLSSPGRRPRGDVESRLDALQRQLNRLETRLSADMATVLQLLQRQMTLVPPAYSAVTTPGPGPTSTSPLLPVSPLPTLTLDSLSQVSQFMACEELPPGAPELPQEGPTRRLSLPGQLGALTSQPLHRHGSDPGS
Chain of Beta2 (P07550 whole entry): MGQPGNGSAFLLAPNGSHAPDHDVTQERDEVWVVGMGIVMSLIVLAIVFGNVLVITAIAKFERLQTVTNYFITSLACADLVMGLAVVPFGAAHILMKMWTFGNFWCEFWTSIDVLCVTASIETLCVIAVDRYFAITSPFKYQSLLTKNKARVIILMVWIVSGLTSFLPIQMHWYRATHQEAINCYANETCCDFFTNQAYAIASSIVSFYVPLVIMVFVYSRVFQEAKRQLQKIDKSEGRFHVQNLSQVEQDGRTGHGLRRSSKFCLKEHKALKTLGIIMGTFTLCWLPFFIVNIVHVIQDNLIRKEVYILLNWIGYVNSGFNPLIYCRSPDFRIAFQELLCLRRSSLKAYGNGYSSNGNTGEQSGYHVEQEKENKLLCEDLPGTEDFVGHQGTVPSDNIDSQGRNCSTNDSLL
Chain of CB2 (P34972 whole entry): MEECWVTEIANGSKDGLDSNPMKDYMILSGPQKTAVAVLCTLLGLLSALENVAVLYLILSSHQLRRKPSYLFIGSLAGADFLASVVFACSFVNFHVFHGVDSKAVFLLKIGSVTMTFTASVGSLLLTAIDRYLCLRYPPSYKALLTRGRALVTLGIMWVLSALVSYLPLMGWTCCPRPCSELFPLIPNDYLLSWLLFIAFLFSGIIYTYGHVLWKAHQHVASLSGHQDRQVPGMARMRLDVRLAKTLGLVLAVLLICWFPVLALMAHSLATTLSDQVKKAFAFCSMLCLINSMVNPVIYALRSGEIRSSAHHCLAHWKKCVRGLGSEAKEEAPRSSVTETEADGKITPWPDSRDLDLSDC
Chain of COX2 (P35354 18-604): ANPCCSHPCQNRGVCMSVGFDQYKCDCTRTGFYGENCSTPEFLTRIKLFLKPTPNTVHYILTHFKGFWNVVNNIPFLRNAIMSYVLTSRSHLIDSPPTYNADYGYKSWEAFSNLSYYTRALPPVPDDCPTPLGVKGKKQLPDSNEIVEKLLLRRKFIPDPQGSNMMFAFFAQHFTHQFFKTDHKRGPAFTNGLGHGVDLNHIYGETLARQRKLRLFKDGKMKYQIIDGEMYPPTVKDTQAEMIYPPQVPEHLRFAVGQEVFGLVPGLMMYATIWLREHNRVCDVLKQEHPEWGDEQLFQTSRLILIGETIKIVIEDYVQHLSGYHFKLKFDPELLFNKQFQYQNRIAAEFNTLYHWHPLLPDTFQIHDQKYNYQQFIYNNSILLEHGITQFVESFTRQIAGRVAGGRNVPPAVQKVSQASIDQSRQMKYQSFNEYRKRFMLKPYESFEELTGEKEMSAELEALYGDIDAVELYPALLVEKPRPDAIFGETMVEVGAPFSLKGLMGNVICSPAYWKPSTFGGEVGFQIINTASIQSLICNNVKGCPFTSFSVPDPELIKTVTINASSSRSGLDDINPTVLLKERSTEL

CCc1cnccc1C(=O)Nc1cc2c(cc1F)NC(=O)CC2 [MBE1, 3-ethyl-N-(7-fluoro-2-oxo-3,4-dihydro-1H-quinolin-6-yl)pyridine-4-carboxamide]
inhibition at 10 µM (CCKa): -1.45%
CD4 T cells as percentage of total CD45^+ immune cells (in words) (T3-MCA tumors): increased CD4 T cells
ΔTm at 1 µM (CDCP1; A-375, read-out: DMSO-1uM MBE1 TM shift): -7.8 °C
1uM MBE1 Tm (CDCP1): 63.2685
100nM MBE1 Tm (TPX2): 64
DMSO-100nM MBE1 TM (TPX2): -7.655
inhibition at 10 µM (op-mu): 3.98%
Inhibition by MBE1 at 10 μM (%) (NMDA): −13.59%
inhibition at 10 µM (ACHE): 5.81%
inhibition at 10 µM (5HT2B): -6.81%
inhibition at 10 µM (Alpha1A): -3.34%
inhibition at 10 µM (CB2): 5.07%
inhibition at 10 µM (AR): -10.1%
inhibition at 10 µM (LCK): -2.81%
inhibition at 10 µM (op-delta): 5.54%
inhibition at 10 µM (5HT1B): 5.26%
inhibition at 10 µM (COX1): -2.65%
inhibition at 10 µM (H2): 4.29%
inhibition at 10 µM (hERG): -28.1%
T cell proliferation block by B16F10-ALDH1A3 conditioned media (in words) (mouse T cells): proliferation block disappeared
inhibition at 10 µM (PDE4D2): 11.8%
inhibition at 10 µM (Beta1): -8.49%
inhibition at 10 µM (COX2): -1.05%
inhibition at 10 µM (Beta2): 3.23%
inhibition at 10 µM (GR): -13.5%
inhibition at 10 µM (D1): -16.4%

CCc1ccccc1C(=O)Nc1cc2c(cc1F)NC(=O)CC2 [MBE1.5, 2-ethyl-N-(7-fluoro-2-oxo-3,4-dihydro-1H-quinolin-6-yl)benzamide]
tumor growth (in words) (T3-MCA sarcoma): dramatically reduced tumor growth
feedback effect on ALDH1A3 expression (in words) (ALDH1A3 mRNA): no feedback effect
